In patent US20260151398A1, “COMPOUNDS FOR REDUCING CHOLESTEROL AND TREATING LIVER AND KIDNEY DISEASE” (McMaster University, priority 2021, published 2026):
Entries after “also recorded” stand apart in the source; their conditions may differ.

Tests used:
C57BL/6J mice = test: Mouse studies: circulating PCSK9, triglycerides, ApoB and hepatic markers; assay type: in vivo
Method: Liver tissues were fixed in formaldehyde and subsequently embedded in paraffin for sectioning. […] Slides were then exposed to biotin-conjugated secondary antibodies for 45 minutes and then streptavidin peroxidase for 10 minutes. Staining was visualized using the Nova Red HRP Substrate (Vector Laboratories).
Mouse PCSK9 was measured using the Quantikinine® ELISA kit (#MCP900, R&D Systems) and human PCSK9 using the PCSK9 Quantikinine® ELISA kit (#DCP900, R&D Systems). Serum ApoB levels were also quantified using ELISAs (#DAPB00, R&D Systems). Serum samples were diluted as per manufacturer's instructions.
All animal studies were carried out in 8 h-fasted male wild-type, Pcsk9^−/− or Ampkβ1^−/− mice on the C57BL/6J background. CF (25-100 mg/kg-8 h) and CDN (50 mg/kg) treatments were administered via intraperitoneal injection unless specified otherwise. Primary mouse hepatocytes were isolated using a two-step process with EGTA ([…] in HEPES buffer, Sigma Aldrich) and collagenase (0.05% in HEPES buffer, Sigma Aldrich) in 12-week-old male mice on the C57BL/6J background. Cells were then washed, centrifuged, and plated following isolation in cell strainers. Hepatosure® 100-donor pooled primary human hepatocytes were purchased from Xenotech. Primary hepatocytes were regularly grown in William's E medium (Gibco, Thermo Fisher Scientific) containing 10% fetal bovine serum, 100 IU/ml penicillin, and 100 µg/ml streptomycin.
Next, the effect of CF on PCSK9 expression/secretion and ER stress marker expression was assessed in mice. […] Immunohistochemical staining intensities were quantified using ImageJ Software (FIG. 9 E).

GRP78 and SREBP2 = test: Co-immunoprecipitation of GRP78 with SREBP2 in HuH7 cells; assay type: cell-based, human; conditions: TG 100 nM, CDN 100 μM, CF 200 μM, 24 h
Method: Cells were grown in 10 cm dishes were resuspended in ice cold non-denaturing immunoprecipitation buffer containing 20 mM tris HCL, 137 mM NaCl, 1% NP-40, 2 mM EDTA and protease inhibitor (Roche). Total cell protein was normalized using a protein assay (BioRad) and 1 mg of protein from each sample was incubated with 2 μg of capture antibody targeted against GRP78 (Santa Cruz Biotechnology; SC-1050) and rotated on a platform for 24 h at 4° C. Following incubation, samples were exposed to 100 μl of Protein G magnetic Surebeads® (BioRad) for an additional 2 h on a rotating platform at 4° C. Beads conjugated to the anti-GRP78 antibody were subsequently isolated and the remaining sample was collected and labelled “input” for use as controls. The magnetic beads underwent 4 consecutive washes using the non-denaturing IP buffer and resuspended and boiled in 100 μl of 4× SDS-PAGE sample buffer.
To determine whether increasing ER Ca^2+ levels enhance GRP78 peptide binding capacity, HuH7 cells were treated with either CDN, which increases ER Ca^2+ levels, or TG which causes ER Ca^2+ depletion. Following treatment, the interaction taking place between GRP78 and SREBP2 was examined via immunoprecipitation of the former. By affecting ER Ca^2+ levels however, these agents also directly impact the expression and abundance of GRP78 compared to untreated cells. Therefore, assessment of the relative binding capacity GRP78 for SREBP2 between treatments required normalization of immunoprecipitations to equivalent GRP78 protein levels (FIG. 7 A).

ER Ca^2+ levels = test: ER Ca2+ in HuH7 cells (D1ER, Mag-Fluo-4, TG-induced efflux); assay type: cell-based, human; conditions: TG 100 nM, CDN 100 μM, CF 200 μM, 24 h
Method: Intracellular Ca^2+ in Huh7 and HepG2 cells was measured using a high-affinity Ca^2+ indicator, Fura-2-AM (Thermofisher Scientific). ER Ca^2+ levels were assessed using the low-affinity Ca^2+ indicator, Mag-Fluo-4, and via transfection of cells with D1ER. The D1ER plasmid encodes an ER-resident calcium binding protein linked to a fluorescent protein and increases in fluorescence intensity upon Ca^2+ binding (7). For assessment using indicators, cells were plated in black clear-bottom 96-well plates to a confluence of 70-75% and treated with Ca^2+ modulating agents for 24 h (n=6). Cells were then washed and incubated with Fura-2-AM (2 μM) or Mag-Fluo-4 (2 μM) for 45 minutes at 37° C. in HBSS containing 20 mM HEPES and 2% pluronic acid v/v (Thermofisher Scientific). Fluorescence intensity of intracellular Fura-2-AM was measured at two distinct wavelengths (ex 340/em 515 and ex 380/em 515), following three consecutive washes, to assess bound and unbound states using a SpectraMax® GeminiEM fluorescent spectrophotometer (Molecular Devices, Sunnyvale, California, USA). Fluorescence intensity of Mag-Fluo-4 was quantified at a single wavelength (ex 495/em 515). […] Twenty-four h later, cells were treated with Ca^2+ modulating agents for an additional 24 h and quantified (ex 495/em 515) using a SpectraMax® GeminiEM fluorescent spectrophotometer.
Among the many intracellular effects of CF on the cell, its ability to increase intracellular Ca^2+ levels is well-studied (Echeverri, D., et al., 2010). […] ER Ca^2+ levels were then examined in cells transfected with D1ER; a genetically-encoded ER-resident fluorescence resonance energy transfer (FRET)-based […] chameleon Ca^2+ sensor, which increases in fluorescence intensity upon Ca^2+ binding (Palmer, A. E., et al., 2004). The low-affinity Ca^2+ indicator, Mag-Fluo-4, was also utilized for the direct assessment of ER Ca^2+ and increases in fluorescence intensity upon Ca^2+ binding (Diercks, B. P., et al., 2017; Lebeau, P., et al., 2021). […] ER Ca^2+ content was also assessed indirectly with the high affinity Ca^2+ dye, fura-2-AM (FIG. 6 B). […]

[1] = 18-week-old C57BL/6J mice, CF 30 mg/kg every 24 hours for 14 days

| SMILES | hepatic LDLR expression (CDN) (C57BL/6J mice; mice, 50 mg/kg, IP, 8 h) | interaction of GRP78 with pre-mature SREBP2 (GRP78 and SREBP2) | ER Ca^2+ levels (ER Ca^2+ levels) | serum Apolipoprotein B (ApoB) (C57BL/6J mice; [1]) | serum PCSK9 after daily dosing (C57BL/6J mice; [1]) | circulating PCSK9 levels after oral gavage (C57BL/6J mice; mice, CF 20 mg/kg oral gavage, listed as CF) | circulating PCSK9 levels (C57BL/6J mice; mice, CF 50 mg/kg IP, 8 h) | circulating triglyceride levels (C57BL/6J mice; mice, CF 50 mg/kg IP, 8 h) | time required to significantly reduce plasma PCSK9 (C57BL/6J mice; mice, time-course) [h] | hepatic expression of UPR markers / chaperones (C57BL/6J mice; mouse liver, CF 50 mg/kg, 8 h, listed as CF) |
| --- | --- | --- | --- | --- | --- | --- | --- | --- | --- | --- |
| Cc1ccc2cccc(NC(=O)c3ccc(OC(C)C)cc3)c2n1 [CDN] | increased hepatic LDLR expression | enhanced the ability of GRP78 to interact with and sequester pre-mature SREBP2 | increased ER Ca^2+ levels |  |  |  |  |  |  |  |
| C/C=C(/C)C(=O)O[C@H]1C(C)=C2[C@H]([C@@H]1OC(=O)CCCCCCC)[C@@](C)(OC(C)=O)C[C@H](OC(=O)CCC)[C@@]1(O)[C@H]2OC(=O)[C@@]1(C)O [TG, thapsigargin] |  | lost its intrinsic ability to interact with pre-mature SREBP2 | reduced ER Ca^2+ levels |  |  |  |  |  |  |  |
| Cn1c(=O)c2c(ncn2C)n(C)c1=O [caffeine, 1,3,7-Trimethylxanthine] |  | increases the SREBP2-binding capacity of GRP78 | increased ER Ca^2+ levels | reduction | reduction | reduced circulating PCSK9 levels; also recorded: reduces plasma PCSK9 levels | significant reduction | significant reduction | 4 | reduced the expression of UPR markers; also recorded: reduces chaperone expression |
